The values below come from patent US12630523B2, “Isoquinoline derivatives for use as antiviral and antitumour agents” (priority 2021, dated 2026).

The target of one assay is T1, HPV16 E7 protein (Human papillomavirus type 16, UniProt P03129).
T1 construct: endogenous in cells; host or cells: CaSki cells (HPV16-positive cervical carcinoma)
T1 sequence (P03129 whole entry): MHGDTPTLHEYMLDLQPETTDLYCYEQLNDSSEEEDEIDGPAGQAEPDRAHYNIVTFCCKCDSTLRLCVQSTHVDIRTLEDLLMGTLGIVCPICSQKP
Assay: not given
It counts as cell-based. Conditions: CaSki cells; adjusted degradation, CHX steady state set to 100% degradation. As for the experimental part: For intracellular antibody labeling, 0.5×10^6 cells are washed once with 1 ml ice-cold PBS. Cells are centrifuged at 350×g for 5 minutes at 4° C. and then fixed in 1% paraformaldehyde (1 ml/10^6 cells) for 20 minutes at 4° C. Cells are washed with 1 ml ice-cold PBS and centrifuged at 350×g for 5 minutes at 4° C. To permeabilize cells, 100% ice-cold methanol (1 ml/10^6 cells) is added to the cells and incubated for 20 minutes at 4° C. followed by centrifugation at 350×g for 5 minutes at 4° C. Cells are washed with 1 ml ice-cold PBS, centrifuged at 350×g for 5 minutes at 4° C. and resuspended in 0.1% saponin+2% FBS in PBS (ice-cold). Cells are left for 20-30 minutes at room temperature to reduce the background signal and then centrifuged at 350×g for 5 minutes at 4° C. The primary antibody (mAb_HPV16E7-1 (VS13004); concentration 1 μg/μl) is diluted in 0.1% saponin+2% FBS (dilution 0.25 μg/50 μl of incubation buffer per 1×10^6 cells (5 ng/μl)). Cells are incubated with primary antibody for 30 minutes at room temperature, washed with 0.1% saponin+2% FBS and centrifuged at 350×g for 5 minutes at 4° C. The secondary antibody (FITC conjugated goat anti-mouse IgG1-IgM, BD, cat. #555988) is diluted in 0.1% saponin+2% FBS (dilution 1:50). Cells are incubated with secondary antibody for 30 minutes at room temperature, washed once with 0.1% saponin+2% FBS, once with PBS and centrifuged at 350×g for 5 minutes at 4° C.
Cells are resuspended in 700 μl PBS prior to CF analysis with a Beckman Coulter FC 500 MPL, (excitation laser 488 nm). Data analysis is done using the Beckman Coulter software packages MXP for acquisition and CXP for data analysis which includes MFI calculation. Detection of HPV-E7 protein expression is based on morphology back-gating of FL1 histogram (logarithmic scale) with gating for dot plot FS (Forward Scatter) log/SS (Sideward Scatter) log and gating for histograms SS log.
In order to define the level of E7 protein expression and to study the extent of E7 protein steady state level reduction in E7 expressing cells in the presence of various compounds, FC analysis is implemented using the intracellular antibody labeling procedure for monoclonal antibodies to HPV E7. E7 signal intensities are analyzed from the obtained FL1 histograms at logarithmic scale. The FL1 single histogram graph represents the variation in the mean fluorescence intensity (MFI) channel for cells treated with selected compounds compared to cells not incubated with primary antibodies but incubated with secondary, which allows to test for auto-fluorescence, and non-compound treated cells as controls. Non-primary antibody-stained cells are used to set the acquisition parameters to zero. Decrease of the mean fluorescence intensity channel corresponds to a decrease in the expression of HPV16 E7 protein. Degradation of E7 in cells is calculated as percent (%) reduction in MFI(x-Me) using the following formulas: % Drel=(T−C)/T*100; i) relative degradation: % Dad=(T−C)/(T−CHX)*100; ii) adjusted degradation: • Drel=relative degradation, • Dad=adjusted degradation assuming CHX % Drel=100; • T=MFI of non-treated cells; • C=MFI of compound treated cells; • CH=MFI of cycloheximide (CHX) treated cells;
For comparison within one experiment i) the % relative degradation (Drel) is sufficient, whereas for comparison between two or more experiments ii) the adjusted degradation (Dad) is used and CHX steady state is set to a 100% degradation parameter.
1×10^6 freshly seeded CaSki cells (ATCC CRL-7915), are grown in 10 cm diameter cell culture dishes in RPMI1640, 10% FCS medium at 37° C. 5% CO2 overnight and then incubated in the presence of 10 μM Cycloheximide (CHX) 10 μM OC246 or with vehicle alone for four hours at 37° C. 5% CO2. Following this E7 protein is assessed by cytofluorimetric analysis using intracellular HPV16 E7 antibody labeling. […]
On to `Cc1ccc(CN2C(=O)c3ccccc3[C@@H](C(=O)Nc3cccc(N4CCOCC4)c3)[C@@H]2c2ccc(C(F)(F)F)cc2)cc1` (relative stereo) [OC973], for which the “% Dad” value is 20%.

On to `CN1CCN(c2cccc(NC(=O)[C@@H]3c4ccccc4C(=O)N(Cc4ccncc4)[C@H]3c3ccc(C(F)(F)F)cc3)c2)CC1` (relative stereo) [OC975], for which the “% Dad” value came out at 67%.

The next assay deals with CaSki cells. In words: Cell cycle analysis using Propidium-Iodide staining (flow cytometry). It counts as cell-based, human. The settings on record: 48 hour incubation, 5 μM, no treatment 15.0. The protocol:
Propidium-Iodide (PI) DNA staining is performed to facilitate cell cycle analysis. For PI-DNA staining, fixed cells and eventually antibody-stained cells are resuspended in 450 μl of PBS (per 10^6 cells) and incubated with 100 μg/ml RNase (stock 1 mg/ml, in PBS) for 10 minutes at 37° C. Cells are then incubated with 5 μg/106 cells of PI (stock 1 mg/ml in PBS) for 10 minutes at room temperature. Samples are stored at 4° C. until CF analysis.
CaSki cells were incubated with various compounds and cell cycle distribution of the cells was assessed using Propidium-Iodide staining.
In order to analyze the cytostatic versus the cytotoxic effect of OC compounds, cell cycle profiles were analyzed in vitro after 48 hour incubations using Flow Cytometry as a read out. For this a cell cycle analysis from selected OC E7 degrader compounds was conducted in CaSki cells. Using 6 well plates, 1.5×10^5 cells were seeded for each well and grown over night at 37° C. 5% CO2. For analysis of the cell cycle behavior, cells were analyzed in the presence of propidium Iodide (PI^−) by flow cytometry (FC). Briefly, cells were detached by trypsin digestion, all supernatants were included in the analysis, and fixed with 70% ice cold ethanol and stored at 4° C. until FC analysis using PI^− staining (1 mg/ml). At least 7000 events were acquired for each sample.
Regarding `Cc1ccc(CN2C(=O)c3ccccc3[C@@H](C(=O)Nc3cccc(N4CCOCC4)c3)[C@@H]2c2ccc(C(F)(F)F)cc2)cc1` (relative stereo) [OC973], the “A*/5 μM (apoptosis as measured from total SUB G1 content)” value was determined as 11.1%.

As for `CN1CCN(c2cccc(NC(=O)[C@@H]3c4ccccc4C(=O)N(Cc4ccncc4)[C@H]3c3ccc(C(F)(F)F)cc3)c2)CC1` (relative stereo) [OC975], the “A*/5 μM (apoptosis as measured from total SUB G1 content)” value is on record as 13.9%.

Still in this assay, the particulars now being: 48 hour incubation, 10 μM, no treatment 15.0.
As to `Cc1ccc(CN2C(=O)c3ccccc3[C@@H](C(=O)Nc3cccc(N4CCOCC4)c3)[C@@H]2c2ccc(C(F)(F)F)cc2)cc1` (relative stereo) [OC973], the “A*/10 μM (apoptosis as measured from total SUB G1 content)” value worked out at 13.0%.

On to `CN1CCN(c2cccc(NC(=O)[C@@H]3c4ccccc4C(=O)N(Cc4ccncc4)[C@H]3c3ccc(C(F)(F)F)cc3)c2)CC1` (relative stereo) [OC975], for which the “A*/10 μM (apoptosis as measured from total SUB G1 content)” value is 11.8%.

Staying with this assay, now noted: cell cycle distribution, 48 hour incubation, 5 μM, no treatment 15.6.
For the molecule `Cc1ccc(CN2C(=O)c3ccccc3[C@@H](C(=O)Nc3cccc(N4CCOCC4)c3)[C@@H]2c2ccc(C(F)(F)F)cc2)cc1` (relative stereo) [OC973], the “G2/5 μM” value was 17.6%.

Turning to `CN1CCN(c2cccc(NC(=O)[C@@H]3c4ccccc4C(=O)N(Cc4ccncc4)[C@H]3c3ccc(C(F)(F)F)cc3)c2)CC1` (relative stereo) [OC975], the “G2/5 μM” value amounted to 10.4%.

The assay is the same for the next values; noted with them: cell cycle distribution, 48 hour incubation, 5 μM, no treatment 53.3.
For the molecule `Cc1ccc(CN2C(=O)c3ccccc3[C@@H](C(=O)Nc3cccc(N4CCOCC4)c3)[C@@H]2c2ccc(C(F)(F)F)cc2)cc1` (relative stereo) [OC973], the “G1/5 μM” value was found to be 52.1%.

In the case of `CN1CCN(c2cccc(NC(=O)[C@@H]3c4ccccc4C(=O)N(Cc4ccncc4)[C@H]3c3ccc(C(F)(F)F)cc3)c2)CC1` (relative stereo) [OC975], the “G1/5 μM” value turned out to be 49.9%.

Staying with this assay, now noted: cell cycle distribution, 48 hour incubation, 10 μM, no treatment 15.6.
Regarding `Cc1ccc(CN2C(=O)c3ccccc3[C@@H](C(=O)Nc3cccc(N4CCOCC4)c3)[C@@H]2c2ccc(C(F)(F)F)cc2)cc1` (relative stereo) [OC973], the “G2/10 μM” value is on record as 11.5%.

For `CN1CCN(c2cccc(NC(=O)[C@@H]3c4ccccc4C(=O)N(Cc4ccncc4)[C@H]3c3ccc(C(F)(F)F)cc3)c2)CC1` (relative stereo) [OC975], the “G2/10 μM” value is on record as 10.5%.

Still in this assay, the particulars now being: cell cycle distribution, 48 hour incubation, 10 μM, no treatment 53.3.
As to `Cc1ccc(CN2C(=O)c3ccccc3[C@@H](C(=O)Nc3cccc(N4CCOCC4)c3)[C@@H]2c2ccc(C(F)(F)F)cc2)cc1` (relative stereo) [OC973], the “G1/10 μM” value was found to be 52.6%.

As to `CN1CCN(c2cccc(NC(=O)[C@@H]3c4ccccc4C(=O)N(Cc4ccncc4)[C@H]3c3ccc(C(F)(F)F)cc3)c2)CC1` (relative stereo) [OC975], the “G1/10 μM” value is 51.4%.

In a further assay the test system is CaSki (ATCC CRM-CRL-1550). In words: Monolayer assay using Sulphorhodamine B (SRB) staining, CaSki. It counts as cell-based. The settings on record: Homo sapiens, Ca-Ski, read-out: EC50 mean [nM]. The protocol: Various cell culture cells grown as monolayers are harvested from exponential growing cultures after treatment with various OC compounds at different concentrations. For this depending on the cell line, 10.000 to 30.000 cells were plated in 96-well flat-bottom microtiter plates. After a 24 h recovery period to allow cells to resume exponential growth, supernatants are discarded and 100 μl of culture medium (eight control wells/plate) or culture medium with the test compound are added by a liquid handling robotic system (Microlab® Starlet, Hamilton) and treatment continued for 72 hrs. Compounds are applied at 9 concentrations and eight wells/concentration). At least three independent experiments are performed. For SRB staining, cells are fixed with SRB01 (Tab. 5) for 1 h at 4° C. (final concentration of TCA=10%) washed with a plate washer (Hydroflex, Tecan©) for five times with H2O; and stained with 100 μl of SRB02 at room temperature for 10 min following 4 washes in SRB03 and finally 100 μl of developer solution SRB04 for 5 minutes with shaking. Optical density is assessed using a plate-reader (Sunrise, Tecan©) at 540 nm.
Concentrations required for half maximal response of the compound for cell growth inhibition (EC50) is calculated by non-linear regression (log[conc. of inhibitor] versus response (% T/C)) using the analysis software GraphPad Prism®, Prism 5 for windows, version 5.01 (GraphPad Software Inc., CA).
Turning to `Cc1ccc(CN2C(=O)c3ccccc3[C@@H](C(=O)Nc3cccc(N4CCOCC4)c3)[C@@H]2c2ccc(C(F)(F)F)cc2)cc1` (relative stereo) [OC973], the EC50 was determined as 6720 nM.

Regarding `CN1CCN(c2cccc(NC(=O)[C@@H]3c4ccccc4C(=O)N(Cc4ccncc4)[C@H]3c3ccc(C(F)(F)F)cc3)c2)CC1` (relative stereo) [OC975], the half-maximal effective concentration (EC50) is 4340 nM.

The next assay has as its system SARS-CoV-2 isolate BetaCov/Belgium/GHB-03021/2020. Description: microbe, parasite or virus in culture. It counts as cell-based. The settings on record: Severe acute respiratory syndrome coronavirus 2; 1.25 μM (non-toxic compound concentration), n4.
As to `Cc1ccc(CN2C(=O)c3ccccc3[C@@H](C(=O)Nc3cccc(N4CCOCC4)c3)[C@@H]2c2ccc(C(F)(F)F)cc2)cc1` (relative stereo) [OC973], testing at 1.25 µM gave an inhibition of 0.95%.

`CN1CCN(c2cccc(NC(=O)[C@@H]3c4ccccc4C(=O)N(Cc4ccncc4)[C@H]3c3ccc(C(F)(F)F)cc3)c2)CC1` (relative stereo) [OC975]: the inhibition at 1.25 µM was determined as 0.17%.
